A short description of this series: Comparison of solubility of derivatives in water. It is filed as physicochemical. The following applies: shaken vigorously every 5 minutes for 30 seconds until clear. As to the method:
Then the solution was shaken vigorously every 5 minutes for 30 seconds. After 30 minutes, the solution was turbid. Another 1.5 mL of water was added and the solution was shaken vigorously every 5 minutes for 30 seconds, and the solution became clear until 9 mL of water was totally added.
24.2 mg of the cholesterol derivative of the mEG7-OH prepared in Example 9 was dispersed in 50 mL of water, and 5 mL of the mixture was taken out and added with 1.5 mL of water. Then the solution was shaken vigorously every 5 minutes for 30 seconds. After 30 minutes, the solution became turbid. Another 5 mL of water was added and the solution was shaken vigorously every 5 minutes for 30 seconds until 25 mL of water was totally added. 5 mL of the solution was taken out from the diluted solution and operated similarly, and the solution became clear until 10 mL of water was added.
111.0 mg of the hexadecanol derivative of the ((mEG3)2-N—C3H6)2—N—C3H6—OH prepared in Example 8 was dispersed in 50 μL of water, and shaken vigorously every 5 minutes for 30 seconds. After 30 minutes, the solution became clear. Another 50 μL of water was added and the solution was shaken vigorously every 5 minutes for 30 seconds, and the solution was still clear until 1.025 mL of water was added.
112.9 mg of the hexadecanol derivative of the mEG7-OH prepared in Example 9 was dispersed in 50 μL of water, and shaken vigorously every 5 minutes for 30 seconds. After 30 minutes, the solution was turbid. Another 50 μL of water was added and the solution was shaken vigorously every 5 minutes for 30 seconds, and the solution became clear until 250 μL of water was added.
After 30 minutes, the solution was clear. Another 50 μL of water was added and the solution was shaken vigorously every 5 minutes for 30 seconds, and the solution was still clear until 1.025 mL of water was added.
After 30 minutes, the solution was turbid. Another 50 μL of water was added and the solution was shaken vigorously every 5 minutes for 30 seconds. After 30 minutes, the solution became clear.

Molecules are shown by their SMILES.

Turning to `CC(C)CCC[C@@H](C)[C@H]1CC[C@H]2[C@@H]3CC=C4C[C@@H](O)CC[C@]4(C)[C@H]3CC[C@]12C` [Cholesterol, cholesterol], the Solubility in water entry is reported as “Less than 0.2 mg/ mg/100 g H2O”. Also, where the note is “listed as cholesterol”, the Solubility in water entry was “less than 0.2 mg/100 g H2O”.

For `CCCCCCCCCCCCCCCCO` [Hexadecanol, hexadecanol], the Solubility in water result is recorded as “Less than 1 mg/ mg/100 g H2O”. Besides, the Solubility in water entry (listed as hexadecanol) is “less than 1 mg/100 g H2O”.

As for `CC1CCC(C(C)C)C(O)C1` (stereo not drawn) [Menthol, menthol], the Solubility in water result is “Less than 100 mg/ mg/100 g H2O”. The Solubility in water entry (listed as menthol) is “less than 100 mg/100 g H2O”.

These data come from US11053185B2, “Dendritic polyethylene glycol derivative, and preparation method and application thereof” (JENKEM TECHNOLOGY CO., LTD. (TIANJIN), priority 2017, dated 2021).
